Measured values from PubChem BioAssay AID2060607 (Molecular Pharmacology Branch, DTP, NCI, 2025).

Tested on: 876862-298-R-J1-PDC complex spheroids, viability % test/control
Assay: Anticancer human tumor 876862-298-R-J1-PDC patient-derived endometrial carcinoma cell line growth inhibition [CLK]
Conditions: for IC50: curve of first compound; for viability, T/C: stronger effect = lower value
Summary of the method: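 Multi-cell-type spheroids combined patient-derived tumor cells with HUVEC endothelial cells and human mesenchymal stem cells. Paired agents were dosed in half-log steps down from about clinical Cmax, or from 10 microM where Cmax was unknown.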

[1] = second compound 0.0316 µM, first compound 0.0316 µM
[2] = second compound 0.0316 µM, first compound 0.1 µM
[3] = second compound 0.0316 µM, first compound 0.316 µM
[4] = second compound 0.0316 µM, first compound 1 µM
[5] = second compound 0.0316 µM, first compound 3.16 µM
[6] = second compound 0.0316 µM, first compound 10 µM
[7] = second compound 0.1 µM, first compound 0.0316 µM
[8] = second compound 0.1 µM, first compound 0.1 µM
[9] = second compound 0.1 µM, first compound 0.316 µM
[10] = second compound 0.1 µM, first compound 1 µM
[11] = second compound 0.1 µM, first compound 3.16 µM
[12] = second compound 0.1 µM, first compound 10 µM
[13] = second compound 0.316 µM, first compound 0.0316 µM
[14] = second compound 0.316 µM, first compound 0.1 µM
[15] = second compound 0.316 µM, first compound 0.316 µM
[16] = second compound 0.316 µM, first compound 1 µM
[17] = second compound 0.316 µM, first compound 3.16 µM
[18] = second compound 0.316 µM, first compound 10 µM
[19] = second compound 1 µM, first compound 0.0316 µM
[20] = second compound 1 µM, first compound 0.1 µM
[21] = second compound 1 µM, first compound 0.316 µM
[22] = second compound 1 µM, first compound 1 µM
[23] = second compound 1 µM, first compound 3.16 µM
[24] = second compound 1 µM, first compound 10 µM
[25] = second compound 3.16 µM, first compound 0.0316 µM
[26] = second compound 3.16 µM, first compound 0.1 µM
[27] = second compound 3.16 µM, first compound 0.316 µM
[28] = second compound 3.16 µM, first compound 1 µM
[29] = second compound 3.16 µM, first compound 3.16 µM
[30] = second compound 3.16 µM, first compound 10 µM
[31] = second compound 10 µM, first compound 0.0316 µM
[32] = second compound 10 µM, first compound 0.1 µM
[33] = second compound 10 µM, first compound 0.316 µM
[34] = second compound 10 µM, first compound 1 µM
[35] = second compound 10 µM, first compound 3.16 µM
[36] = second compound 10 µM, first compound 10 µM
[37] = second compound 0.0316 µM, first compound 0.00316 µM
[38] = second compound 0.0316 µM, first compound 0.01 µM
[39] = second compound 0.1 µM, first compound 0.00316 µM
[40] = second compound 0.1 µM, first compound 0.01 µM
[41] = second compound 0.316 µM, first compound 0.00316 µM
[42] = second compound 0.316 µM, first compound 0.01 µM
[43] = second compound 1 µM, first compound 0.00316 µM
[44] = second compound 1 µM, first compound 0.01 µM
[45] = second compound 3.16 µM, first compound 0.00316 µM
[46] = second compound 3.16 µM, first compound 0.01 µM
[47] = second compound 10 µM, first compound 0.00316 µM
[48] = second compound 10 µM, first compound 0.01 µM
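Further: spheroids exposed to drugs for 7 days before readout.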
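Wherever viability, T/C is given: 100% = DMSO vehicle control wells.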

`CC(CO)NC(=O)c1cc(-c2ccc(Cl)cc2)nn(-c2cnn(C)c2)c1=O` (stereo not drawn) + CNC(=O)c1ccc(Nc2nc(OC3CCCC3)c3c(-c4ccc5nc(C)oc5c4)c[nH]c3n2)c(OC)c1 showed an IC50 (second compound 0.0316 µM) of over 10000 nM, an IC50 (second compound 0.1 µM) of under 31.6 nM and an IC50 (second compound 0.316 µM) of under 31.6 nM. The IC50 (second compound 1 µM) was under 31.6 nM, the IC50 (second compound 3.16 µM) was under 31.6 nM and the IC50 (second compound 10 µM) was under 31.6 nM. It also gave a viability, T/C [1] of 68.7%, a viability, T/C [2] of 81% and a viability, T/C [3] of 66.9%. The viability, T/C [4] was 67.7%, the viability, T/C [5] was 62.9% and the viability, T/C [6] was 55.7%. For the same compound, the viability, T/C [7] was 41%, the viability, T/C [8] was 53% and the viability, T/C [9] was 44.9%. It also gave a viability, T/C [10] of 48.5%, a viability, T/C [11] of 46.1% and a viability, T/C [12] of 42.7%. It also gave a viability, T/C [13] of 38.7%, a viability, T/C [14] of 43.8% and a viability, T/C [15] of 39.7%. The viability, T/C [16] was 37.9%, the viability, T/C [17] was 42.7% and the viability, T/C [18] was 42.1%. For the same compound, the viability, T/C [19] was 33.8%, the viability, T/C [20] was 32.6% and the viability, T/C [21] was 38.9%. The viability, T/C [22] was 33.3%, the viability, T/C [23] was 30% and the viability, T/C [24] was 31.3%. The viability, T/C [25] was 24%, the viability, T/C [26] was 25.1% and the viability, T/C [27] was 21.7%. For the same compound, the viability, T/C [28] was 25.5%, the viability, T/C [29] was 27.2% and the viability, T/C [30] was 22.4%. It also gave a viability, T/C [31] of 23.9%, a viability, T/C [32] of 21.2% and a viability, T/C [33] of 20.5%. It also gave a viability, T/C [34] of 23.8%, a viability, T/C [35] of 23.1% and a viability, T/C [36] of 20.9%.
`CC(Nc1ccc2c(c1)OCCn1cc(N3C(=O)OCC3C(F)F)nc1-2)C(N)=O` (stereo not drawn) + CNC(=O)c1ccc(Nc2nc(OC3CCCC3)c3c(-c4ccc5nc(C)oc5c4)c[nH]c3n2)c(OC)c1 gave an IC50 (second compound 0.0316 µM) of 316 nM, an IC50 (second compound 0.1 µM) of under 31.6 nM and an IC50 (second compound 0.316 µM) of under 31.6 nM. For the same compound, the IC50 (second compound 1 µM) was under 31.6 nM, the IC50 (second compound 3.16 µM) was under 31.6 nM and the IC50 (second compound 10 µM) was under 31.6 nM. For the same compound, the viability, T/C [1] was 56%, the viability, T/C [2] was 61.4% and the viability, T/C [3] was 46.6%. The viability, T/C [4] was 41%, the viability, T/C [5] was 31.8% and the viability, T/C [6] was 20.8%. The viability, T/C [7] was 40.6%, the viability, T/C [8] was 38.3% and the viability, T/C [9] was 32.5%. It also gave a viability, T/C [10] of 27%, a viability, T/C [11] of 20.9% and a viability, T/C [12] of 16%. For the same compound, the viability, T/C [13] was 41%, the viability, T/C [14] was 33.2% and the viability, T/C [15] was 29.7%. For the same compound, the viability, T/C [16] was 23.1%, the viability, T/C [17] was 20% and the viability, T/C [18] was 17.4%. For the same compound, the viability, T/C [19] was 31.6%, the viability, T/C [20] was 25.4% and the viability, T/C [21] was 22.1%. The viability, T/C [22] was 20%, the viability, T/C [23] was 17.1% and the viability, T/C [24] was 14%. The viability, T/C [25] was 20.1%, the viability, T/C [26] was 16.7% and the viability, T/C [27] was 15.1%. It also gave a viability, T/C [28] of 14.8%, a viability, T/C [29] of 14% and a viability, T/C [30] of 10.2%. The viability, T/C [31] was 16.7%, the viability, T/C [32] was 14.8% and the viability, T/C [33] was 12.6%. The viability, T/C [34] was 13%, the viability, T/C [35] was 12% and the viability, T/C [36] was 9.25%.
With `CCN1CCN(Cc2ccc(Nc3ncc(F)c(-c4cc(F)c5nc(C)n(C(C)C)c5c4)n3)nc2)CC1` + CNC(=O)c1ccc(Nc2nc(OC3CCCC3)c3c(-c4ccc5nc(C)oc5c4)c[nH]c3n2)c(OC)c1 the IC50 (second compound 0.0316 µM) was over 1000 nM, the IC50 (second compound 0.1 µM) was 60.7 nM and the IC50 (second compound 0.316 µM) was under 3.16 nM. The IC50 (second compound 1 µM) was under 3.16 nM, the IC50 (second compound 3.16 µM) was under 3.16 nM and the IC50 (second compound 10 µM) was under 3.16 nM. It also gave a viability, T/C [37] of 76.6%, a viability, T/C [38] of 84.1% and a viability, T/C [1] of 69.4%. The viability, T/C [2] was 62.5%, the viability, T/C [3] was 59% and the viability, T/C [4] was 49%. For the same compound, the viability, T/C [39] was 46%, the viability, T/C [40] was 51.9% and the viability, T/C [7] was 57.1%. The viability, T/C [8] was 47.8%, the viability, T/C [9] was 47.8% and the viability, T/C [10] was 49.5%. For the same compound, the viability, T/C [41] was 47.2%, the viability, T/C [42] was 45.2% and the viability, T/C [13] was 49.6%. For the same compound, the viability, T/C [14] was 46.4%, the viability, T/C [15] was 45.1% and the viability, T/C [16] was 42.8%. It also gave a viability, T/C [43] of 34.7%, a viability, T/C [44] of 40.4% and a viability, T/C [19] of 41.1%. It also gave a viability, T/C [20] of 38.8%, a viability, T/C [21] of 31.8% and a viability, T/C [22] of 40.5%. It also gave a viability, T/C [45] of 28%, a viability, T/C [46] of 29.1% and a viability, T/C [25] of 27.1%. For the same compound, the viability, T/C [26] was 30%, the viability, T/C [27] was 30.1% and the viability, T/C [28] was 35.2%. For the same compound, the viability, T/C [47] was 25.2%, the viability, T/C [48] was 25.6% and the viability, T/C [31] was 22.7%. The viability, T/C [32] was 26.4%, the viability, T/C [33] was 30.1% and the viability, T/C [34] was 32.2%.
For `COc1c(OCCCN2CCOCC2)ccc2c3n(c(=NC(=O)c4cnc(N)nc4)nc12)CCN3` + CNC(=O)c1ccc(Nc2nc(OC3CCCC3)c3c(-c4ccc5nc(C)oc5c4)c[nH]c3n2)c(OC)c1, the IC50 (second compound 0.0316 µM) was 22.8 nM, the IC50 (second compound 0.1 µM) was under 3.16 nM and the IC50 (second compound 0.316 µM) was under 3.16 nM. It also gave an IC50 (second compound 1 µM) of under 3.16 nM, an IC50 (second compound 3.16 µM) of under 3.16 nM and an IC50 (second compound 10 µM) of under 3.16 nM. For the same compound, the viability, T/C [37] was 63.1%, the viability, T/C [38] was 67.3% and the viability, T/C [1] was 43.5%. The viability, T/C [2] was 22.6%, the viability, T/C [3] was 15.8% and the viability, T/C [4] was 18%. For the same compound, the viability, T/C [39] was 45.5%, the viability, T/C [40] was 35.1% and the viability, T/C [7] was 25.3%. The viability, T/C [8] was 16.6%, the viability, T/C [9] was 16.6% and the viability, T/C [10] was 18.4%. For the same compound, the viability, T/C [41] was 37.4%, the viability, T/C [42] was 32.6% and the viability, T/C [13] was 22.6%. The viability, T/C [14] was 18.1%, the viability, T/C [15] was 13.4% and the viability, T/C [16] was 14.9%. The viability, T/C [43] was 29.2%, the viability, T/C [44] was 22.1% and the viability, T/C [19] was 18.4%. The viability, T/C [20] was 13.6%, the viability, T/C [21] was 12% and the viability, T/C [22] was 12.6%. It also gave a viability, T/C [45] of 22.1%, a viability, T/C [46] of 17% and a viability, T/C [25] of 12.5%. For the same compound, the viability, T/C [26] was 9.46%, the viability, T/C [27] was 9.04% and the viability, T/C [28] was 7.24%. The viability, T/C [47] was 17.3%, the viability, T/C [48] was 16.9% and the viability, T/C [31] was 13.3%. For the same compound, the viability, T/C [32] was 9.74%, the viability, T/C [33] was 6.96% and the viability, T/C [34] was 6.64%.
